Source: patent US7851629B2, “Disubstituted phenylpiperidines as modulators of dopamine and serotonin neurotransmission” (NSAB, Filial af Neurosearch Sweden AB, Sverige, priority 2004, dated 2010)
“And” between values parts separate entries of the source, which are not always exact repeats. Identical values can stand only once. Counter-ions that a name gives are not always drawn.

How the values were obtained:
schizophrenic patients = settings: selective sigma receptor antagonists; Borison et al 1991, Gewirtz et al 1994; cited from earlier work
[1] = tested on: extracellular 5-HT, dopamine and norepinephrine in the cortex; assay: Microdialysis in awake and freely moving rats, cortex monoamines; format: in vivo, rat; settings: for levels of dopamine in the cortex / levels of norepinephrine in the cortex / 5-HT in the cortex: 50 μmol/kg s.c., pf. cortex; for levels of dopamine in the cortex / levels of norepinephrine in the cortex: FIG. 2-4; for 5-HT in the cortex: FIGS. 2-4
Text: The microdialysis technique (Ungerstedt, Herrera-Marschitz et al. 1982) is a well established technique for measuring extracellular levels of neurotransmitters (Ungerstedt 1991). The microdialysis technique was used to measure the effect of drugs upon the monoamine transmitters. The appended graphs (FIGS. 1-4) show the effects of one established antidepressant (citalopram) upon 5-HT in the cortex, as well as for three compounds claimed in the present invention (Examples 3, 5, and 6).
Male Sprague-Dawley rats weighing 220-320 g were used throughout the experiments. Before the experiment the animals were group housed, five animals in each cage, with free access to water and food. The animals were housed at least one week after arrival prior to surgery and use in the experiments. Each rat was used only once for microdialysis.
We use a modified version (Waters, Lofberg et al. 1994) of the I-shaped probe (Santiago and Westerink 1990). The dialysis membrane we use is the AN69 polyacrylonitrile/sodium methalylsulfonate copolymer (HOSPITAL; o.d./i.d. 310/220 μm: Gambro, Lund, Sweden). In the dorsal striatum we use probes with an exposed length of 3 mm of dialysis membrane and in the prefrontal cortex the corresponding length is 2.5 mm. The rats were operated under isoflurane inhalation anesthesia while mounted into a Kopf stereotaxic instrument. Coordinates were calculated relative to bregma; dorsal striatum AP+1, ML±2.6, DV−6.3; Pf cortex, AP+3.2, 8° ML±1.2, DV−4.0 according to (Paxinos and Watson 1986). The dialysis probe was positioned in a burr hole under stereotaxic guidance and cemented with phosphatine dental cement.
The rats were housed individually in cages for 48 h before the dialysis experiments, allowing them to recover from surgery and minimizing the risk of drug interactions with the anaesthetic during the following experiments. During this period the rats had free access to food and water. On the day of experiment the rats were connected to a micro perfusion pump via a swivel and were replaced in the cage where they could move freely within its confinements. The perfusion medium was a Ringer's solution containing in mmol/l: NaCl; 140, CaCl2; 1.2, KCl; 3.0, MgCl2; 1.0 and ascorbic acid; 0.04 according to (Moghaddam and Bunney 1989). The pump was set to a perfusion speed of 2 μl/min and 40 μl samples were collected every 20 min.
30 μl of each sample was injected into the chromatograph. On a 10-port injector (Valco CLOW), with two sample loops mounted in series (2 μl and 20 μl), each brain dialysate sample is loaded in both loops simultaneously. When the valve is switched to inject the main part of the 20 μl sample is introduced into a reverse-phase ion-pairing system for dopamine (DA), norepinephrine (NA), normetanephrine (NM), 3-methoxytyramine(3-MT) and serotonin (5-hydroxytryptamine, 5-HT) determination (large loop), while a small fraction (2 μl, from the small loop) is introduced on a reverse-phase column for the chromatography of the acidic monoamine metabolites 3,4-di-hydroxyphenylacetic acid (DOPAC), homovanillic acid (HVA) and 5-hydroxyindoleacetic acid (5-HIAA). The currents generated by the two EC detectors are converted to digital data and evaluated using Chromelion software (Dionex, Sunnyvale, Calif.) on a PC. The method sample turn over time was 4.5 min and two parallel experiments are normally analysed simultaneously on the system. After the experiment the rats were uncoupled from the perfusion pump and decapitated. Their brains were rapidly taken out and fixed in Neo-fix solution (Kebo-lab, Sweden) for subsequent inspection of probe localisation. The Animal Ethics Committee in Göteborg, Sweden approved the procedures applied in these experiments. • Moghaddam, B. and B. S. Bunney (1989). “Ionic Composition of Microdialysis Perfusing Solution Alters the Pharmacological Responsiveness and Basal Outflow of Striatal Dopamine.” J. Neurochem. 53: 652-654. • Paxinos, G. and C. Watson (1986). […]

MK-801 pre-treated rats = assay: Locomotor activity in MK-801 pre-treated rats; settings: ± SEM; for Locomotor activity, MK + example: MK-801 0.7 mg/kg i.p. 90 minutes before test compound 33 μmol/kg, recorded 30-60 minutes after administration
drug-naive rats = assay: Locomotor activity in drug-naive rats; settings: recorded for 60 minutes, ± SEM

## CN1CCC(c2cccc(C(F)(F)F)c2F)CC1 (as salt: hydrochloric acid salt)
other
  melting point: 260 to 261 °C

## CCCN1CCC(c2cccc(OC(F)(F)F)c2F)CC1 (as salt: hydrochloric acid salt) [Example 2, 4-[2-fluoro-3-(trifluoromethoxy)phenyl]-1-propyl-piperidine]
other
  melting point: 221 to 222 °C

## CCN1CCC(c2cccc(C(F)(F)F)c2F)CC1 (as salt: hydrochloric acid salt) [Example 3, 4-[2-fluoro-3-(trifluoromethyl)phenyl]-1-ethylpiperidine]
other
  melting point: 235 to 237 °C

## CCCN1CCC(c2cccc(F)c2F)CC1 (as salt: hydrochloric acid salt) [Example 5, 4-(2,3-difluorophenyl)-1-propylpiperidine]
other
  melting point: 237 to 238 °C

## CCCN1CCC(c2cccc(Cl)c2Cl)CC1 (as salt: hydrochloric acid salt) [Example 6, 4-(2,3-dichlorophenyl)-1-propylpiperidine]
other
  melting point: 265 to 267 °C

## CCN1CCC(c2cccc(C#N)c2F)CC1 (as salt: oxalic acid salt)
other
  melting point: 156 to 158 °C

## OC(CCCN1CCN(c2ncc(F)cn2)CC1)c1ccc(F)cc1 (stereo not shown) [BMY14802]
Schizophrenic patients
  outcome of clinical studies in schizophrenic patients: failed

## C[C@@H]1CN(CCCn2c3ccccc3c3ccccc32)C[C@H](C)N1 [BW234U]
Schizophrenic patients
  outcome of clinical studies in schizophrenic patients: failed

## CCN1CCC(c2cccc(C(F)(F)F)c2F)CC1 [Example 3, 4-[2-fluoro-3-(trifluoromethyl)phenyl]-1-ethylpiperidine]
[1]
  levels of dopamine in the cortex: elevate
  levels of norepinephrine in the cortex: elevate
  5-HT in the cortex: 5-HT increase in the cortex

## CCCN1CCC(c2cccc(F)c2F)CC1 [Example 5, 4-(2,3-difluorophenyl)-1-propylpiperidine]
[1]
  levels of dopamine in the cortex: elevate
  levels of norepinephrine in the cortex: elevate
  5-HT in the cortex: 5-HT increase in the cortex

## CCCN1CCC(c2cccc(Cl)c2Cl)CC1 [Example 6, 4-(2,3-dichlorophenyl)-1-propylpiperidine]
[1]
  levels of dopamine in the cortex: elevate
  levels of norepinephrine in the cortex: elevate
  5-HT in the cortex: 5-HT increase in the cortex

## C[C@]12N[C@H](Cc3ccccc31)c1ccccc12 [MK-801, reference compound]
MK-801 pre-treated rats; MK-801 0.7 mg/kg i.p. alone, recorded 30-60 minutes, 0.7 mg/kg
  Locomotor activity, MK-801: 55810 ± 16124 counts/30 min and 30462 ± 6937 counts/30 min

## CCN1CCC(c2cccc(C(F)(F)F)c2F)CC1 [drawing 17]
drug-naive rats; 11 μmol/kg
  Locomotor activity: 10587 ± 1027 counts/60 min
drug-naive rats; 33 μmol/kg
  Locomotor activity: 6439 ± 418 counts/60 min
drug-naive rats; 100 μmol/kg
  Locomotor activity: 4866 ± 941 counts/60 min

## CCCN1CCC(c2cccc(Cl)c2Cl)CC1 [drawing 18]
drug-naive rats; 11 μmol/kg
  Locomotor activity: 7739 ± 1903 counts/60 min
drug-naive rats; 33 μmol/kg
  Locomotor activity: 7053 ± 659 counts/60 min
drug-naive rats; 100 μmol/kg
  Locomotor activity: 4272 ± 1831 counts/60 min

## CCCN1CCC(c2cccc(F)c2F)CC1 [drawing 19]
drug-naive rats; 11 μmol/kg
  Locomotor activity: 8894 ± 1039 counts/60 min
drug-naive rats; 33 μmol/kg
  Locomotor activity: 9958 ± 1835 counts/60 min
drug-naive rats; 100 μmol/kg
  Locomotor activity: 8154 ± 1388 counts/60 min

## CCCN1CCC(c2cccc(Cl)c2Cl)CC1 [drawing 28]
MK-801 pre-treated rats
  Locomotor activity, MK + example: 12943 ± 3226 (P = 0.06) counts/30 min

## CCCN1CCC(c2cccc(F)c2F)CC1 [drawing 29]
MK-801 pre-treated rats
  Locomotor activity, MK + example: 19826 ± 6949 (P = 0.09) counts/30 min

## CN1CCN2c3ncccc3Cc3ccccc3C2C1 (stereo not shown) [mirtazapine, reference compound]
[1]; 10 mg/kg s.c., cortex, FIG. 5
  extracellular dopamine in the cortex: increase
  extracellular norepinephrine in the cortex: increase
